In data set [1] the test system is S. aureus NCTC 8325 persister cells. Put plainly: Persister cell assay II. Format: cell-based. Conditions: TSB, with or without 30 μg/mL oxacillin; 20 h or 70 h; 2.4 μM PK/X17-1-150 or PK/X17-4-011, 24 μM sorafenib or PK/X17-2-011, 5 μg/mL ciprofloxacin. How it is done: Persister cell assay II. Tryptic soy broth (50 mL in 250 mL culture flasks) was inoculated 1:1000 with overnight cultures of NCTC 8325 and grown at 37° C. and 200 rpm until an OD600 of 4 was reached or overnight (ON). Serial dilution were prepared and plated to determine the cell numbers in the inoculum. […]. […] After 20 h (A) or 70 h (B) of treatment, cells were harvested, washed two times with PBS (10000×g, 3 min), serially diluted and plated on agar plates for determination of surviving cell numbers.

Another data set can be described thus: Plasma stability assay. Format: in vitro ADME, mouse. Conditions: 10 μM, 37° C., up to 6 h (360 min), LC-MS. How it is done: The in vitro stability was tested by a LC-MS based method. Mouse plasma was purchased from biowest (mouse plasma w/lithium heparin, sterile filtered S2162-010) and used as a 1:1 dilution with potassium phosphate buffer (0.1 M, pH 7.4). Final assay concentration of DMSO from compound stocks was 1%. AV1, a β-lactone with known low plasma stability, was used as positive control at a concentration of 50 μM. The compound stability test in plasma was initiated by the addition of 10 μM compound of interest (50 μM in the case of AV1) to 250 μL of diluted mouse plasma at 37° C. Directly after compound addition the reaction mixture was shortly mixed by vortexing and the first sample of 25 μL was withdrawn (time point 0 min). Every sample was quenched immediately by the addition 30 μL of pre-chilled acetonitrile. The reaction mixture was incubated at 37° C. with gentle shaking at 600 rpm. At certain time points (5, 10, 20, 30, 60, 120, 240, 360 min) additional samples (25 μL) were taken for every test compound, quenched as described and stored at −20° C. […] Quantitative LC-MS analysis was performed by LCQ-Fleet Ion Trap Mass Spectrometer equipped with an APCI ion source and a DionexHPLC system using a Waters Xbridge BEH130 C18 column (5 μM 4.6×100 mm). […] Plasma stability was determined in three independent experiments.

The next data set has as its system Enterobacter aerogenes. Put plainly: Minimal inhibitory concentration (MIC) assay. The format is cell-based. Conditions: Klebsiella aerogenes, B medium.
Data set [2] deals with Mycobacterium tuberculosis H37Rv. Put plainly: Minimal inhibitory concentration (MIC) assay. Format: cell-based. Conditions: 7H9 medium.
In data set [3] the test system is Staphylococcus aureus VA402525. The data set is described as follows: Minimal inhibitory concentration (MIC) assay. The format is cell-based. Conditions: Staphylococcus aureus VA402525 (clinical isolate); B medium.
The test system of data set [4] is Staphylococcus aureus Bk97296. The data set is described as follows: Minimal inhibitory concentration (MIC) assay. Format: cell-based. Conditions: Staphylococcus aureus Bk97296 (clinical isolate); B medium.
A further data set has as its system Pseudomonas aeruginosa. The data set is described as follows: Minimal inhibitory concentration (MIC) assay. Format: cell-based. Conditions: B medium.
Data set [5] concerns Staphylococcus aureus IS050678. The data set is described as follows: Minimal inhibitory concentration (MIC) assay. The format is cell-based. Conditions: Staphylococcus aureus IS050678 (clinical isolate); B medium.
Data set [6] has as its system Staphylococcus aureus VA402923. The data set is described as follows: Minimal inhibitory concentration (MIC) assay. The format is cell-based. Conditions: Staphylococcus aureus VA402923 (clinical isolate); B medium.
Data set [7] deals with Enterobacter cloacae subsp. Cloacae. Put plainly: Minimal inhibitory concentration (MIC) assay. The format is cell-based. Conditions: B medium.
Data set [8] deals with Mycobacterium smegmatis mc^2 155. Put plainly: Minimal inhibitory concentration (MIC) assay. Format: cell-based. Conditions: Mycolicibacterium smegmatis, MC^2155, LB medium.
Data set [9] deals with Staphylococcus aureus NCTC8325. The data set is described as follows: Minimal inhibitory concentration (MIC) assay. Conditions: for MIC: Staphylococcus aureus NCTC8325, B medium. The format is cell-based. How it is done: Minimum inhibitory concentrations (MICs) represent the lowest concentration of sample that will inhibit the visible growth of a microorganism after overnight incubation, and was obtained by a 96 well plate-based assay (Thermo Scientific) with serial dilutions of the probes tested. […] Bacteria were diluted in fresh medium to a concentration of 10^5 CFU/mL. In the case of all other bacteria species tested, fresh media was inoculated 1/10000 and directly used for testing. Diluted bacterial cultures (99 μL) were added to various concentrations of probe (1 μL of the respective stock in DMSO). A growth control containing DMSO (1 μL) and cultivated medium (99 μL) and a sterile control containing fresh medium (100 μL) were run on every 96 well plate in triplicates. After incubation at 37° C. with gentle shaking (200 rpm) for 24 h, the dilution series was analysed for microbial growth, usually indicated by turbidity and/or a pellet of bacteria at the bottom of the well. The lowest concentration in the dilution series at which no growth of bacteria could be observed by eye was defined as the minimum inhibitory concentration (MIC) of the probe. MIC values were determined by three independent experiments with at least triplicate runs for each concentration. […] Both compounds were tested against various bacterial strains. […] The assay was performed as described above.

Data set [10] has as its system Staphylococcus aureus USA300. The data set is described as follows: Minimal inhibitory concentration (MIC) assay. The format is cell-based. Conditions: B medium.
Data set [11] relates to Staphylococcus aureus VA412350. The data set is described as follows: Minimal inhibitory concentration (MIC) assay. The format is cell-based. Conditions: Staphylococcus aureus VA412350 (clinical isolate); B medium.
Data set [12] concerns Staphylococcus aureus IS050611. The data set is described as follows: Minimal inhibitory concentration (MIC) assay. Format: cell-based. Conditions: Staphylococcus aureus IS050611 (clinical isolate); B medium.
Data set [13] concerns S. aureus NCTC 8325 persister cells. Put plainly: Persister cell assay I. Conditions: gentamicin-selected persisters in PBS; 70 h; 2.4 μM PK/X17-1-150, 24 μM sorafenib, 5 μg/mL ciprofloxacin. The format is cell-based.
A further data set has as its system S. aureus NCTC8325. The data set is described as follows: Analysis of S. aureus NCTC8325 secretome. Conditions: 0.5×MIC (PK/X17-1-150 0.15 μM, sorafenib 1.5 μM), 1.5 h.
A further data set has as its system S. aureus Mu50. The data set is described as follows: Minimal inhibitory concentration (MIC) assay. Format: cell-based. Conditions: Staphylococcus aureus, B medium.
Data set [14] has as its system Staphylococcus aureus VA409044. Put plainly: Minimal inhibitory concentration (MIC) assay. Format: cell-based. Conditions: Staphylococcus aureus VA409044 (clinical isolate); B medium.

Converted amounts (≈) assume the structure as drawn. “Also recorded” adds a separate entry of the source.

For `O=C(Nc1ccc2c(c1)OC(F)(F)O2)Nc1ccc(Cl)c(C(F)(F)F)c1` [Example 4, 1-(4-Chloro-3-(trifluoromethyl)phenyl)-3-(2,2-difluorobenzo[d][1,3]dioxol-5-yl)urea], the “viable persister cells (CFU/mL) vs DMSO control” value in [1] and in [13] was “significant reduction of viable cells” each time. In addition, the “stability in mouse plasma” value in “Plasma stability assay” is “excellent stability in plasma for several hours”. The minimum inhibitory concentration (MIC) against Enterobacter aerogenes is more than 100 µM; in data set [2], 2 µM (≈ 0.789 µg/mL); in data set [3], 0.3 µM (≈ 0.118 µg/mL); in data set [4], 0.3 µM (≈ 0.118 µg/mL); against Pseudomonas aeruginosa, more than 100 µM; in data set [5], 0.3 µM (≈ 0.118 µg/mL). Moreover, the minimal inhibitory concentration (MIC) in data set [6] was 0.3 µM (≈ 0.118 µg/mL); in data set [7], more than 100 µM; in [8], 1 µM (≈ 0.395 µg/mL); in [9], 0.3 µM (≈ 0.118 µg/mL); in [10], 0.3 µM (≈ 0.118 µg/mL); in data set [11] it was 0.3 µM (≈ 0.118 µg/mL). The MIC (in data set [12]; against S. aureus Mu50; in data set [14]) was 0.3 µM (≈ 0.118 µg/mL) each time. The same compound gave a 50% inhibitory concentration (IC50) in [9] (Staphylococcus aureus, NCTC8325, inhibition of bacterial growth of S. aureus NCTC 8325, obtained by MIC assay) of 0.3 µM. Further, the “secretome (secreted proteins) vs DMSO” value in the data set with S. aureus NCTC8325 is “Essential cell wall biosynthesis proteins are among the processed proteins; also recorded: strong increase of extracellular proteins”.

For `CNC(=O)c1cc(Oc2ccc(NC(=O)Nc3ccc(Cl)c(C(F)(F)F)c3)cc2)ccn1` [Sorafenib, reference compound], the “viable persister cells (CFU/mL) vs DMSO control” value in [1] and in data set [13] was “significant reduction of viable cells” throughout. In addition, the “stability in mouse plasma” value in “Plasma stability assay” was “excellent stability in plasma for several hours”. Further, the MIC was more than 100 µM against Enterobacter aerogenes; 25 µM (≈ 11.6 µg/mL) in data set [2]; 5 µM (≈ 2.32 µg/mL) in [3]; 5 µM (≈ 2.32 µg/mL) in data set [4]; more than 100 µM in the data set on Pseudomonas aeruginosa; 5 µM (≈ 2.32 µg/mL) in [5]. For the same compound, the MIC is 5 µM (≈ 2.32 µg/mL) in data set [6]; more than 100 µM in data set [7]; 6 µM (≈ 2.79 µg/mL) in data set [8]; 3 µM (≈ 1.39 µg/mL) in data set [9]; 3 µM (≈ 1.39 µg/mL) in data set [10]; 5 µM (≈ 2.32 µg/mL) in data set [11]. Besides, the MIC (in data set [12]; in the data set with S. aureus Mu50; in [14]) was 3 µM (≈ 1.39 µg/mL) each time. Also, in the data set with S. aureus NCTC8325, the “secretome (secreted proteins) vs DMSO” value is on record as “SpsB substrates are secreted; also recorded: strong increase of extracellular proteins”.
